In PubChem BioAssay (NCI) one finds TGI data, which are given here for 27 compounds.

Test systems include OVCAR-5 ovarian; COLO 205 colon; SK-MEL-28 melanoma; RXF 393 renal.
Test in all cases: growth of human tumour cells (NCI), 48 h

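Five compound concentrations were applied to cells in 96-well plates for 48 hours; endpoints were derived by simple linear interpolation of the resulting dose-response curve. TGI denotes the concentration required for complete inhibition of growth.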

In the case of `Nc1ccc(-c2nc3ccccc3s2)cc1CO`, the TGI in the test on OVCAR-5 ovarian, in the test on COLO 205 colon, with SK-MEL-28 melanoma and in the test with RXF 393 renal was over 100 µM throughout.

For `C1CSCCSCCSCCSCCS1`, the TGI with OVCAR-5 ovarian, in the test on COLO 205 colon, in the test with SK-MEL-28 melanoma and in the test with RXF 393 renal was over 100 µM in each case.

As for `O=c1[nH][nH]c(=O)n1Cc1ccccc1`, the TGI in the test with OVCAR-5 ovarian, in the test with COLO 205 colon, in the test with SK-MEL-28 melanoma and in the test on RXF 393 renal was over 100 µM in each case.

For the compound `CC(=O)NC1C(OCc2ccccc2)OC(CO)C(O)C1OCC(=O)NC(C(=O)NC(CCC(=O)NCCCCCC(=O)Nc1ccc2c(c1)CN1C(=O)c3ccccc3C1=N2)C(N)=O)C(C)C` (configuration not stated), the TGI in the test with OVCAR-5 ovarian is over 100 µM; with COLO 205 colon it was over 100 µM; with SK-MEL-28 melanoma it was 39 µM; with RXF 393 renal, 45 µM.

`Cc1csc2nc(-c3cc([N+](=O)[O-])c(Cl)cc3Cl)c(/C=N/N=C(N)N)n12`: the TGI in the test with OVCAR-5 ovarian came out at 49.4 µM; in the test on COLO 205 colon, 36.8 µM; with SK-MEL-28 melanoma it was 31.1 µM; with RXF 393 renal, 35 µM.

On to `Nc1ncnc2c1ccn2CC#CCO`, for which the TGI in the test with OVCAR-5 ovarian, in the test on COLO 205 colon, in the test on SK-MEL-28 melanoma and with RXF 393 renal was over 100 µM each time.

As for `CCC1=CC(OCc2ccccc2)C(CCN(Cc2ccccc2)C(=O)OCc2ccccc2)C1` (configuration not stated), the TGI was found to be 36.9 µM in the test with OVCAR-5 ovarian, 45.6 µM in the test on COLO 205 colon, 37.8 µM with SK-MEL-28 melanoma and 17.7 µM with RXF 393 renal.

Consider `c1ccc2c(c1)nc1ccccn12`, for which the TGI in the test on OVCAR-5 ovarian, in the test on COLO 205 colon, in the test with SK-MEL-28 melanoma and in the test on RXF 393 renal was over 100 µM throughout.

In the case of `CCCCCN1C(=O)C(Cc2ccccc2)N=C(c2ccc(O)cc2)c2cc(Cl)ccc21` (configuration not stated), the TGI in the test on OVCAR-5 ovarian was found to be 48.3 µM; in the test with COLO 205 colon, 10.1 µM; with SK-MEL-28 melanoma, 29.7 µM.

`CN1N=C(c2ccncc2)OC1c1cccc(F)c1` (configuration not stated): the TGI with OVCAR-5 ovarian, in the test on COLO 205 colon, with SK-MEL-28 melanoma and in the test on RXF 393 renal was over 100 µM each time.

As to `c1ccc2c(c1)CCN1CCc3ccccc3C1C2` (configuration not stated), the TGI with OVCAR-5 ovarian, in the test with COLO 205 colon and with SK-MEL-28 melanoma was over 100 µM throughout.

For the compound `CN(C)c1n2c3ccc([N+](=O)[O-])cc3n3c(N(C)C)[n+]4ccccc4c3c2c2cccc[n+]12`, the TGI in the test on OVCAR-5 ovarian, in the test with COLO 205 colon, in the test with SK-MEL-28 melanoma and in the test with RXF 393 renal was over 100 µM in each case.

Regarding `CC1(C)CC(=O)c2c(-c3ccc(Cl)cc3)c(C#N)c(=S)n(C3OC(CO)C(O)C(O)C3O)c2C1` (configuration not stated), the TGI is over 100 µM in the test on OVCAR-5 ovarian, 92.8 µM with COLO 205 colon, over 100 µM with SK-MEL-28 melanoma and over 100 µM in the test on RXF 393 renal.

Turning to `C1=NN2C(c3ccccc3)=NOC2C2C(c3ccccc3)=NOC12` (configuration not stated), the TGI with OVCAR-5 ovarian, in the test on COLO 205 colon and in the test with RXF 393 renal was over 100 µM in each case.

As to `Cc1ccc(NC(=O)c2cccc(OP(=O)(Nc3ccc(C)cc3)Nc3ccc(C)cc3)c2)cc1`, the TGI is over 100 µM in the test with OVCAR-5 ovarian, 5.27 µM with COLO 205 colon, over 100 µM with SK-MEL-28 melanoma and 6.75 µM in the test with RXF 393 renal.

As to `CC(C)(C)OC(=O)N(O)CCCn1cnc2c(NC3CC3)ncnc21`, the TGI with OVCAR-5 ovarian, in the test on COLO 205 colon, with SK-MEL-28 melanoma and in the test on RXF 393 renal was over 100 µM in each case.

Regarding `COc1ccc2nc3c4c(nccc4c2c1)-c1ncccc1C3=O`, the TGI came out at 2.1 µM in the test on OVCAR-5 ovarian, 1.28 µM with COLO 205 colon, 0.655 µM with SK-MEL-28 melanoma and 1.02 µM with RXF 393 renal.

With `C/C(=C\[Si](C)(C)c1ccco1)C(C)(O)[C@H](C)O` (some centres not stated), the TGI with OVCAR-5 ovarian, in the test on COLO 205 colon and in the test with SK-MEL-28 melanoma was over 100 µM in each case.

As to `CC(C)CCNC(=O)c1ccc(CNC(=O)/C=C/c2ccc3ccccc3c2)cc1`, the TGI in the test on OVCAR-5 ovarian, with COLO 205 colon, in the test on SK-MEL-28 melanoma and with RXF 393 renal was over 100 µM throughout.

As for `COc1ccc(COCC[C@H](C)OC2OC(CO[Si](C)(C)C(C)(C)C)C(O)C(O)C2O)cc1` (some centres not stated), the TGI with OVCAR-5 ovarian, in the test on COLO 205 colon, with SK-MEL-28 melanoma and in the test on RXF 393 renal was over 100 µM throughout.

As for `N#Cc1c(C#N)c(SSc2c(C#N)c(C#N)c(N)n2-c2cccc3ccccc23)n(-c2cccc3ccccc23)c1N`, the TGI with OVCAR-5 ovarian is 49.9 µM; with COLO 205 colon, 10.6 µM; in the test with SK-MEL-28 melanoma it was over 100 µM; in the test on RXF 393 renal, 17.4 µM.

As for `O=[N+]([O-])C(C(Cl)=C(Cl)Cl)=C(N1CCCCC1)N1CCCCC1`, the TGI in the test on OVCAR-5 ovarian, with COLO 205 colon, with SK-MEL-28 melanoma and in the test with RXF 393 renal was over 100 µM in each case.

For the compound `COc1ccc2c(O)c1-c1c(OC)ccc(c1O)SSc1ccc(OC)c(c1O)-c1c(OC)ccc(c1O)SS2`, the TGI in the test on OVCAR-5 ovarian was over 100 µM; in the test on COLO 205 colon it was over 100 µM; with SK-MEL-28 melanoma it was over 100 µM; in the test with RXF 393 renal it was 60 µM.

Turning to `CC(C)N(C(C)C)S(=O)(=O)CC12CCC(C/C1=N\O)C2` (configuration not stated), the TGI in the test on OVCAR-5 ovarian, with COLO 205 colon, in the test with SK-MEL-28 melanoma and in the test with RXF 393 renal was over 100 µM throughout.

`O=C1CSC(c2ccccc2)N1c1ccc(-c2ccc(-n3c(-c4ccccc4)nc4ccccc4c3=O)cc2)cc1` (configuration not stated): the TGI in the test with OVCAR-5 ovarian, in the test on COLO 205 colon and in the test with SK-MEL-28 melanoma was over 100 µM throughout.

Consider `COc1ccc(/C(C)=C2\CCCN(Cc3ccccc3)C2)cc1`, for which the TGI is over 100 µM with OVCAR-5 ovarian, 32.5 µM in the test on COLO 205 colon, 58.4 µM in the test with SK-MEL-28 melanoma and 43.2 µM with RXF 393 renal.

On to `COC(=O)c1cc(/C=C/C(=O)Cc2ccccc2)cn1S(=O)(=O)c1ccccc1`, for which the TGI in the test on OVCAR-5 ovarian, in the test on COLO 205 colon and in the test on RXF 393 renal was over 100 µM each time.
